This is an account of results in ChEMBL document CHEMBL2346648, “A series of thiazole derivatives bearing thiazolidin-4-one as non-competitive ADAMTS-5 (aggrecanase-2) inhibitors” (Bioorg Med Chem Lett, 2013).

For assay [1], the target named is T1, A disintegrin and metalloproteinase with thrombospondin motifs 5 (Homo sapiens, UniProt Q9UNA0).
T1 sequence (Q9UNA0 whole entry): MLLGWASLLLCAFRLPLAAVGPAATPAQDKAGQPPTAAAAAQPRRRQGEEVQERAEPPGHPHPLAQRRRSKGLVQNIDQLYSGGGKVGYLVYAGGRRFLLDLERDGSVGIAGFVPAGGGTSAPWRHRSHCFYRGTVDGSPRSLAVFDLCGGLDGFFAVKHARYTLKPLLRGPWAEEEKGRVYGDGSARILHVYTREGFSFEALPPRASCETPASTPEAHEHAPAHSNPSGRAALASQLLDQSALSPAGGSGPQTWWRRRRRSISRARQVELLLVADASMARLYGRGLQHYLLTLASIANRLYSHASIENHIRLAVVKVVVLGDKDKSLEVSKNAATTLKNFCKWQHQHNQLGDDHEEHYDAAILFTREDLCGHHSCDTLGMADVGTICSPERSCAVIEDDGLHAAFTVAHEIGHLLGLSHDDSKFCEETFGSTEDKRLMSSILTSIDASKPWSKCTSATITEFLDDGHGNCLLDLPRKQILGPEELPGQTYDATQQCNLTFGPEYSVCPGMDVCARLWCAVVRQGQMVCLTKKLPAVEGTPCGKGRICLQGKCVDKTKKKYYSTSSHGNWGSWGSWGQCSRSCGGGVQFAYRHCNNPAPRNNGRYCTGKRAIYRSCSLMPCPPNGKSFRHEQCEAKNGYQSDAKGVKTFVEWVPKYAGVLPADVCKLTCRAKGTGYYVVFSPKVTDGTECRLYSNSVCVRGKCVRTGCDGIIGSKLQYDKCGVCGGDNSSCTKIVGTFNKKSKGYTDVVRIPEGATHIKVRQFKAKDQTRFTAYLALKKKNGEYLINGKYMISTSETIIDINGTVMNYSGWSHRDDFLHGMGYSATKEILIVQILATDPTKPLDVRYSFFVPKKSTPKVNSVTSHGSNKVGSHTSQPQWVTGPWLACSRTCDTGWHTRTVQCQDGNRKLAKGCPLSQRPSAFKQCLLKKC
The assay can be described thus: Inhibition of ADAMTS-5 (unknown origin).

For assay [2], the target named is T2, A disintegrin and metalloproteinase with thrombospondin motifs 4 (Homo sapiens, UniProt O75173).
T2 sequence (O75173 whole entry): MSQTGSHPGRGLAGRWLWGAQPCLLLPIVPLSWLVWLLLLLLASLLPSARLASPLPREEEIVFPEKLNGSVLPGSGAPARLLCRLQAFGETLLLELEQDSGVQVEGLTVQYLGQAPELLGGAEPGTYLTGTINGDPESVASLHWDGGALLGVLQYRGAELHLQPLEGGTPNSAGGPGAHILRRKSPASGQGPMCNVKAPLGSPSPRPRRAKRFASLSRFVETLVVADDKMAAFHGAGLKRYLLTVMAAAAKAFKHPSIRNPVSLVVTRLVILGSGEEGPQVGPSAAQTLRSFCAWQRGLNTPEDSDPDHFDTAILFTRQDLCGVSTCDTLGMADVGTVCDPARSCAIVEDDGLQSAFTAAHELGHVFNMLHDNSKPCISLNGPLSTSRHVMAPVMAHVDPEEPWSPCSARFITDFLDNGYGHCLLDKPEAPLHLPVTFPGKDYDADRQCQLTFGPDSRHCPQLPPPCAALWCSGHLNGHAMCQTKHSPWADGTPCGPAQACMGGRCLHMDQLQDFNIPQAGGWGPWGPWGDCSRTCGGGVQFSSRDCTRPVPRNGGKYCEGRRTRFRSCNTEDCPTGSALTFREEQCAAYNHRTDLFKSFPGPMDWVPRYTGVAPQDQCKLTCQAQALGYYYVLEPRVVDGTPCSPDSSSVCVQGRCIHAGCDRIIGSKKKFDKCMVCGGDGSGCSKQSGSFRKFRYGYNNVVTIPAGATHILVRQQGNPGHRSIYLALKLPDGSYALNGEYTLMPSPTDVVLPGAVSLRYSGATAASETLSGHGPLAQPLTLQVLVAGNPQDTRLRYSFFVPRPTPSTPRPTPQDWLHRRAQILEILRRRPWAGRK
The assay can be described thus: Inhibition of ADAMTS-4 (unknown origin).

For assay [3], the target named is T3, A disintegrin and metalloproteinase with thrombospondin motifs 5 (Bos taurus) (UniProt Q9TT92).
T3 sequence (whole entry): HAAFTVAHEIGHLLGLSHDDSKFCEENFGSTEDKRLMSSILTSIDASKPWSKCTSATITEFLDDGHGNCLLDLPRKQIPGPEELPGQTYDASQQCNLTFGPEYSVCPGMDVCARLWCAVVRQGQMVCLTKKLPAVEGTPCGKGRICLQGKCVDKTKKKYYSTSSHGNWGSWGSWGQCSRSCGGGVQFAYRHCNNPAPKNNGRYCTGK
In words: Ex vivo inhibition of ADAMTS-5-mediated aggrecan degradation in IL-1-stimulated bovine cartilage explant at 30 uM.

Assay [4] addresses T4, A disintegrin and metalloproteinase with thrombospondin motifs 4 (Bos taurus) (UniProt Q9TT93).
T4 sequence (whole entry): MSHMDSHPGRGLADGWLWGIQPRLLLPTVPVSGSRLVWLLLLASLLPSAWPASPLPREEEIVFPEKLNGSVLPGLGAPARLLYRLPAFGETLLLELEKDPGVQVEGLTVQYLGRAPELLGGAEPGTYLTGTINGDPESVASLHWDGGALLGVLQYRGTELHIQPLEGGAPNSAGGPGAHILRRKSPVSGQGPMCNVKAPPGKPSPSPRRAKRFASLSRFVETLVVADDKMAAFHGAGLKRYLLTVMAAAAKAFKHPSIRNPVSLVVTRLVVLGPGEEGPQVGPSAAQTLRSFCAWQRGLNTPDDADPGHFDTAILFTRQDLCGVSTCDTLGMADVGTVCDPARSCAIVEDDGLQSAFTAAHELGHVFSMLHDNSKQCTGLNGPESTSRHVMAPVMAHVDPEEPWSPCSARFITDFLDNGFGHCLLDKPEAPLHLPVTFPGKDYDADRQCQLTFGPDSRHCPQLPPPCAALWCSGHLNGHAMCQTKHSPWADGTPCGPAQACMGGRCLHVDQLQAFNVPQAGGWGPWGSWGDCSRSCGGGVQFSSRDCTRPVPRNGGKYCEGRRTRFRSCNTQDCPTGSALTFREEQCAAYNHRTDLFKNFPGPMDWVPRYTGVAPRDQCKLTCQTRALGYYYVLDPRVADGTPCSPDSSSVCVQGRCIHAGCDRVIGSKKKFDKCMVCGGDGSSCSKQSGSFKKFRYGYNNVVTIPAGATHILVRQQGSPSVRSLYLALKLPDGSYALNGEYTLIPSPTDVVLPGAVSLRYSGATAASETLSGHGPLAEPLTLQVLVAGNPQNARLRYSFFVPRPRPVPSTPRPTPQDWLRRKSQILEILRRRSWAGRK
The following applies: 30 uM.
Description: Ex vivo inhibition of ADAMTS-4-mediated aggrecan degradation in IL-1-stimulated bovine cartilage explant at 30 uM

Consider `O=C(NO)C1(S(=O)(=O)c2ccc(Oc3ccc(Cl)cc3)cc2)CCN(Cc2ccccc2)CC1`, for which the values for the IC50 in assay [1] and in assay [2] were 0.42 µM and 1 µM, respectively. In addition, the inhibition in assay [3] and in assay [4] was 91% throughout.
